Calls of active or inactive are those of the source.
Assays:
[1] = tested on: Streptococcus; test: GAS bacterial viability reduction – luminescence, BacTiter-Glo, strain UMAA2166, counter-screen for streptokinase expression inhibitor project, dose response (AID 2477); assay type: functional, organism-based
[2] = biological target: T1, Streptokinase A (Streptococcus pyogenes serotype M1, UniProt P10520); test: Absorbance Microorganism-Based Dose Response Follow up to Identify Inhibitors of Streptokinase Expression. [Related pubchem assays: 1677 (Project Summary), 1915, 1914, 1902 (Retest at Dose), 1900 (Counter Screen), 1662 (Primary HTS)]; assay type: functional, Streptococcus pyogenes M1 GAS
T1 sequence (P10520 whole entry): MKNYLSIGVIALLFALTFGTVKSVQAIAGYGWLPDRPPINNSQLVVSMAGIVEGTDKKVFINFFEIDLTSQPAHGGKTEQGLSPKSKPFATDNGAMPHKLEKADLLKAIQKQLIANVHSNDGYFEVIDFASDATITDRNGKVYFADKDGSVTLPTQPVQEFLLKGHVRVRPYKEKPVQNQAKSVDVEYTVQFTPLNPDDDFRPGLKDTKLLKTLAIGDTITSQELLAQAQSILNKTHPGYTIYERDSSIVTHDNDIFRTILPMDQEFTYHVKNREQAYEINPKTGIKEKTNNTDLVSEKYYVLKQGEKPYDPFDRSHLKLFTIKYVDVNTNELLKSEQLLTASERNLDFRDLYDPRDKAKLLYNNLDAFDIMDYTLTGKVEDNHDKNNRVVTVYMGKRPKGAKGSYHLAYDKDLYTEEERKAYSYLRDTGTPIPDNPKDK

[3] = Luminescence Cell-Based Dose Confirmation HTS to Identify Inhibitors of Polyadenylation.; assay type: functional
[4] = biological target: 26S proteasome non-ATPase regulatory subunit 14 (Homo sapiens, UniProt O00487); test: inhibition of proteasome subunit RPN11 – biochemical, fluorescence polarization, uHTS hits, confirmation (AID 602368); assay type: functional
[5] = mitochondrial function rescue without frataxin homolog – Friedreich's ataxia, plus single-dose screen, dose response (AID 1465); assay type: functional;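 also: yeast depleted of Yfh1p frataxin homolog grown on glycerol needing respiration; WST-1 tetrazolium dye reduction as measure of cellular dehydrogenase metabolic activity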
[6] = biological target: 72 kDa type IV collagenase (Homo sapiens, UniProt P08253); test: Dose Response validation of uHTS RPN11 inhibitor hits using a MMP-2 Fluorescence assay.; assay type: functional
[7] = biological target: T2, Aminopeptidase N (Plasmodium falciparum FcB1/Columbia, UniProt O96935); test: malaria alanyl aminopeptidase activity blockers – biochemical, fluorogenic H-Leu-NHMec substrate, 1536-well (AID 1445); parameters: species or system Plasmodium falciparum 3D7, 3D7
T2 sequence (O96935 whole entry): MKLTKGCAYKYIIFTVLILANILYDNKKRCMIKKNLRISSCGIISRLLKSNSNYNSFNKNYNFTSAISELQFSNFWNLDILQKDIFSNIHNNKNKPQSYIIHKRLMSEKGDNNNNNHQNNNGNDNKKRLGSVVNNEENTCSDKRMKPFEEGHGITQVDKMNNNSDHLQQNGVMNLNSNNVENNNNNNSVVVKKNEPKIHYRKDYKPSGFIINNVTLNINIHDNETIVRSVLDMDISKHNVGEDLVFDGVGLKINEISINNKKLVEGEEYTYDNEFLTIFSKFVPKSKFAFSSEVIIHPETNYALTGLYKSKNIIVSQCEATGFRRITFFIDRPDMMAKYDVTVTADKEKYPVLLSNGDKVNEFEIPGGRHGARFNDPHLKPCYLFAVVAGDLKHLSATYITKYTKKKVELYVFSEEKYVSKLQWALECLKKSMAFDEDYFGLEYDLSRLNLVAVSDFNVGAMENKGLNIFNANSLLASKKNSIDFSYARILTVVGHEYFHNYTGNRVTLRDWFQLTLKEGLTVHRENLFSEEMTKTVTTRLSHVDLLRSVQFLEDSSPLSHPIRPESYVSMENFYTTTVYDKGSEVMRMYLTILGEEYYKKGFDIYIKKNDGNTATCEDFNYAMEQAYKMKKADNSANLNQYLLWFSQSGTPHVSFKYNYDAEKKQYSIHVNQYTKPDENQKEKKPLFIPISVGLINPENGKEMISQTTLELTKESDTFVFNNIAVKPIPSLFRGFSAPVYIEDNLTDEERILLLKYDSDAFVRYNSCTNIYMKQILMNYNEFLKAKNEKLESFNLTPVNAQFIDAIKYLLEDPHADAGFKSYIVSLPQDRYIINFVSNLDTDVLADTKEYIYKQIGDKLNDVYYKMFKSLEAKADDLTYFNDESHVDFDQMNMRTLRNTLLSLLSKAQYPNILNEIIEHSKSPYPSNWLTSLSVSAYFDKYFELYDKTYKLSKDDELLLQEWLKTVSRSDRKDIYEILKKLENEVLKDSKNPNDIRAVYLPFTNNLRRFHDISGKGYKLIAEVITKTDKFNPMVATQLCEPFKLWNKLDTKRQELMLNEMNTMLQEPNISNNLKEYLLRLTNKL

[8] = biological target: Prothrombin (Bos taurus, UniProt P00735); test: thrombin protease inhibitors – biochemical, fluorescence polarization, uHTS hits, dose response (AID 602369); assay type: functional
[9] = biological target: FAD-linked sulfhydryl oxidase ALR (Homo sapiens, UniProt P55789); test: ALR-catalysed DTT oxidation blockers – biochemical, H2O2 detection, luminescence, cherry-pick, dose response (AID 493248)
[10] = biological target: Epstein-Barr nuclear antigen 1 (Epstein-Barr virus (strain B95-8) (HHV-4) (Human herpesvirus 4), UniProt P03211); test: inhibition of EBV nuclear antigen 1 DNA binding – biochemical, fluorescence polarization, 1536-well, dose response (AID 2381); parameters: species or system human gammaherpesvirus 4;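 also: fluorescence polarization of a Cy5 DNA probe bound by EBNA-1 protein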
[11] = biological target: T3, SUMO-activating enzyme (Homo sapiens, UniProt Q9UBT2); test: blockers of SAE1/SAE2–UBC9 SUMO transfer – biochemical, HTRF, uHTS, primary screen (AID 2006); assay type: protein-complex assay
T3 sequence (Q9UBE0 whole entry): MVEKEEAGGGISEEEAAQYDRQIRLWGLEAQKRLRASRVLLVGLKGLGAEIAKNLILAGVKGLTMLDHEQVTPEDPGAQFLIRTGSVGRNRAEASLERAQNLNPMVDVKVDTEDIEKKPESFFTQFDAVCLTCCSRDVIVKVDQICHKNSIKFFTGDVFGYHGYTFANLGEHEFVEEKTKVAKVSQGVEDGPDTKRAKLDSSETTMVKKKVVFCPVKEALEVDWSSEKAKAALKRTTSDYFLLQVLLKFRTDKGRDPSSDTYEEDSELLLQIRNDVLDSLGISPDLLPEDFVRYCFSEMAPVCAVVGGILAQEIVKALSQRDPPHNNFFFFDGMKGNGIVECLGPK
T3 sequence (Q9UBT2 whole entry): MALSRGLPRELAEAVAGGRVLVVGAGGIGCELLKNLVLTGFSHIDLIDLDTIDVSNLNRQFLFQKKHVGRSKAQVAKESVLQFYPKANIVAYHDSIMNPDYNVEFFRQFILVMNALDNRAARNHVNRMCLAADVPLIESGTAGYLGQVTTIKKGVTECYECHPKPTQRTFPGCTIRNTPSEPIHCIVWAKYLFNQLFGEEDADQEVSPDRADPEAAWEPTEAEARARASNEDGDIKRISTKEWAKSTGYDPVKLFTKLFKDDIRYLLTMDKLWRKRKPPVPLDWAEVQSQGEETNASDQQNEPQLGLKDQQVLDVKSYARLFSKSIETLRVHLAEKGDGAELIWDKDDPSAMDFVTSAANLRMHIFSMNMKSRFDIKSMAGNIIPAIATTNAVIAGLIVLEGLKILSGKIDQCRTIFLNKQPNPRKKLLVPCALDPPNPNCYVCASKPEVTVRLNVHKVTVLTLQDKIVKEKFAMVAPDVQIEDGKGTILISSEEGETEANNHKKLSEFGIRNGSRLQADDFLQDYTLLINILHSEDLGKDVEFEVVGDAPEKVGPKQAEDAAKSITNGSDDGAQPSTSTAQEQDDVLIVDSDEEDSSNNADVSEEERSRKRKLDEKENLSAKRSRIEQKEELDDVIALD

[12] = biological target: Lytic switch protein BZLF1 (Epstein-Barr virus (strain B95-8) (HHV-4) (Human herpesvirus 4), UniProt P03206); test: inhibition of BZLF1 ZTA DNA binding – biochemical, fluorescence polarization, Epstein-Barr virus, 1536-well, counter-screen for EBNA-1 inhibitor project, dose response (AID 2377); parameters: species or system human gammaherpesvirus 4;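 also: fluorescence polarization of Cy5-labelled ZRE DNA probe bound by purified Zta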
[13] = biological target: T3, SUMO-activating enzyme; test: blockers of UBC9-mediated SUMO conjugation – biochemical, AlphaScreen, SUMOylation inhibitor project, confirmation (AID 2018); assay type: functional
[14] = biological target: T4, Induced myeloid leukemia cell differentiation protein Mcl-1 (Homo sapiens, UniProt Q07820); assay type: functional
T4 sequence (Q07820 whole entry): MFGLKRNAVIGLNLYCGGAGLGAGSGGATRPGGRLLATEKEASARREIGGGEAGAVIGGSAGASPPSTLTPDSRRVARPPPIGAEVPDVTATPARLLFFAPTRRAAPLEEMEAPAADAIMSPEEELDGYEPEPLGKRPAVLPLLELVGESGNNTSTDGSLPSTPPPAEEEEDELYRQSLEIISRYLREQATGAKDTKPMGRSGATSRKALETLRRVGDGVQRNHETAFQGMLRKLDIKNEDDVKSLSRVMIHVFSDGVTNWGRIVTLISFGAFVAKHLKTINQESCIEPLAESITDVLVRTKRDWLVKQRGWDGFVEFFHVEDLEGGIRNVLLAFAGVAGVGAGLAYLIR

[15] = biological target: T5, Protein Tat (Human immunodeficiency virus type 1 group M subtype B (isolate HXB2)(HIV-1), UniProt P04608); assay type: functional;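 also: tat binding to TAR RNA read out by fluorescence polarization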
T5 sequence (P04608 whole entry): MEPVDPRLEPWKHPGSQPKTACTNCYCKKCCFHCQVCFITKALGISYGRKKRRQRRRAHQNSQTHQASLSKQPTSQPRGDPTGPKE

[16] = biological target: T6, Bcl-2-like protein 10 (Homo sapiens, UniProt Q9HD36); test: Bcl-B/TR3 peptide binding disruption – biochemical, fluorescence polarization, FITC-TR3 peptide, selectivity assay for Bfl-1 inhibitor project, primary screen (AID 748);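 also: fluorescence polarization from a fluorescein-labelled TR3 peptide binding purified Bcl-B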
T6 sequence (Q9HD36 whole entry): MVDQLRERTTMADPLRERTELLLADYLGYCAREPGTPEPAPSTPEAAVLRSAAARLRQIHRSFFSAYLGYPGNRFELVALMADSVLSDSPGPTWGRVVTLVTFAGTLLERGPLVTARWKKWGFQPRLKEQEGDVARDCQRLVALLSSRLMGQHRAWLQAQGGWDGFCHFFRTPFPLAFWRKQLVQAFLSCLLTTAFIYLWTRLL

[17] = biological target: Protein-tyrosine kinase 2-beta (Homo sapiens, UniProt Q14289);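 also: potency of inhibitors of PYK2 kinase phosphorylation of poly-GT substrate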
[18] = biological target: T7, Voltage-gated N-type calcium channel alpha-1B subunit/Amyloid beta A4 precursor protein-binding family A member 1 (Homo sapiens, UniProt Q00975+Q02410); test: disruptors of Mint-PDZ/N-type channel peptide interaction – biochemical, HTRF, SAR follow-up (AID 2489); assay type: functional
T7 sequence (Q00975 whole entry): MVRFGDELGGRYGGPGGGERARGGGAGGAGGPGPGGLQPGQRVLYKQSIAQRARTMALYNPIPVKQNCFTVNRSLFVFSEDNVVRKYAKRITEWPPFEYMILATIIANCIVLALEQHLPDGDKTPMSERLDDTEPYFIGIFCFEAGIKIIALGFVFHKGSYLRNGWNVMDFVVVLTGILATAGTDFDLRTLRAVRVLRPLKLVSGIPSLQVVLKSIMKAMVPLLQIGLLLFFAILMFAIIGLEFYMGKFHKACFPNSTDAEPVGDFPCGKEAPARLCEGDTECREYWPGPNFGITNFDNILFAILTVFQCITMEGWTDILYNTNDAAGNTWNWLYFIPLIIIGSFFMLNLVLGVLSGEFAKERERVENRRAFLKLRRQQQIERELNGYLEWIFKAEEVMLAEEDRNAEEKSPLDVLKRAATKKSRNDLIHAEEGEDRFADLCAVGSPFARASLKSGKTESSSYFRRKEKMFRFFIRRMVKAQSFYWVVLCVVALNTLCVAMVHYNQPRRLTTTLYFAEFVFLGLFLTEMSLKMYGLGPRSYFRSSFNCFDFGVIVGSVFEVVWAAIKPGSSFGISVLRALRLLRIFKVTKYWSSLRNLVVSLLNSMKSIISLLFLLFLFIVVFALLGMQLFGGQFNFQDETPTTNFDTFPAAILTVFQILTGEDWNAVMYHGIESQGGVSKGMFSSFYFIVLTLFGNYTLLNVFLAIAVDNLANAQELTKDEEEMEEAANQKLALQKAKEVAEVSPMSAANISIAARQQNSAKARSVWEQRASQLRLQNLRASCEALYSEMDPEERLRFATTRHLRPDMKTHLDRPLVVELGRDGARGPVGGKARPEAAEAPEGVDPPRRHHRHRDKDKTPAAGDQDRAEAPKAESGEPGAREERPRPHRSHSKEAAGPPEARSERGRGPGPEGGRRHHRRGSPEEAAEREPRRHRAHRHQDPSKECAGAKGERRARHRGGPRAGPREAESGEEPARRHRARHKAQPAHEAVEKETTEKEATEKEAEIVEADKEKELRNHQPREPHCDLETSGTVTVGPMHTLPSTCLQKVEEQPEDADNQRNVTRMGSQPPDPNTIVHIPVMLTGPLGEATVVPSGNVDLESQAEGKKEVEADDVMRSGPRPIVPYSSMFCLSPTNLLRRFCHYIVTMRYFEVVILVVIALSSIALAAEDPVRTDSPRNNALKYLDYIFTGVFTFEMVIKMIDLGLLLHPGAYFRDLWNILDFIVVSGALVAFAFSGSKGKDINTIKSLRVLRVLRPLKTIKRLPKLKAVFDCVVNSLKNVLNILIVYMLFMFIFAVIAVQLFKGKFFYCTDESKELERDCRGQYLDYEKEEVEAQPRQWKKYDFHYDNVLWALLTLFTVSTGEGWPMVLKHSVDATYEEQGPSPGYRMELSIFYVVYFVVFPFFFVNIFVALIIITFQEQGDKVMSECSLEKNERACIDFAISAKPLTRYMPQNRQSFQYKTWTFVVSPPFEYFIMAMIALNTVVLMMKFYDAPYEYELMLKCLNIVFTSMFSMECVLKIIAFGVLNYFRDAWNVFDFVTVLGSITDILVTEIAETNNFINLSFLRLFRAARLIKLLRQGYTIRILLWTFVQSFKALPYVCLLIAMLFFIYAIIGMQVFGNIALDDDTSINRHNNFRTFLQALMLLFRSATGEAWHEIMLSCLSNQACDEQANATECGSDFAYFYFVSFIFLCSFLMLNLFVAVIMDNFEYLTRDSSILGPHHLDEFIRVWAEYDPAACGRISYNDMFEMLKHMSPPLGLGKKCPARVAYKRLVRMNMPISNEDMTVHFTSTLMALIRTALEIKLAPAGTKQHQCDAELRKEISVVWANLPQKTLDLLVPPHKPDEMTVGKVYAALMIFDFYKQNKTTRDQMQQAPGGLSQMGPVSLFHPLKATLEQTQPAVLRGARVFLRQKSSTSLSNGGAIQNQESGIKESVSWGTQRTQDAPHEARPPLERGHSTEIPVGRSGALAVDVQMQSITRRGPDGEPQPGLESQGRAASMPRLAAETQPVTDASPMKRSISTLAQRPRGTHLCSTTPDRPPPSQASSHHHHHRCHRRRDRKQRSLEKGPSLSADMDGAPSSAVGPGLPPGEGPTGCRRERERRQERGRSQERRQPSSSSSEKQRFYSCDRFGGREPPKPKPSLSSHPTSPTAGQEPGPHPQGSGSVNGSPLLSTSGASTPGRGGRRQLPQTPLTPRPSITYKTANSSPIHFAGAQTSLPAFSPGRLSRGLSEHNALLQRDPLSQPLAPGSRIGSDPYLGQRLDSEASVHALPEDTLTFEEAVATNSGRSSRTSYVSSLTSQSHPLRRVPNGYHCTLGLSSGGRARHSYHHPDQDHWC
T7 sequence (Q02410 whole entry): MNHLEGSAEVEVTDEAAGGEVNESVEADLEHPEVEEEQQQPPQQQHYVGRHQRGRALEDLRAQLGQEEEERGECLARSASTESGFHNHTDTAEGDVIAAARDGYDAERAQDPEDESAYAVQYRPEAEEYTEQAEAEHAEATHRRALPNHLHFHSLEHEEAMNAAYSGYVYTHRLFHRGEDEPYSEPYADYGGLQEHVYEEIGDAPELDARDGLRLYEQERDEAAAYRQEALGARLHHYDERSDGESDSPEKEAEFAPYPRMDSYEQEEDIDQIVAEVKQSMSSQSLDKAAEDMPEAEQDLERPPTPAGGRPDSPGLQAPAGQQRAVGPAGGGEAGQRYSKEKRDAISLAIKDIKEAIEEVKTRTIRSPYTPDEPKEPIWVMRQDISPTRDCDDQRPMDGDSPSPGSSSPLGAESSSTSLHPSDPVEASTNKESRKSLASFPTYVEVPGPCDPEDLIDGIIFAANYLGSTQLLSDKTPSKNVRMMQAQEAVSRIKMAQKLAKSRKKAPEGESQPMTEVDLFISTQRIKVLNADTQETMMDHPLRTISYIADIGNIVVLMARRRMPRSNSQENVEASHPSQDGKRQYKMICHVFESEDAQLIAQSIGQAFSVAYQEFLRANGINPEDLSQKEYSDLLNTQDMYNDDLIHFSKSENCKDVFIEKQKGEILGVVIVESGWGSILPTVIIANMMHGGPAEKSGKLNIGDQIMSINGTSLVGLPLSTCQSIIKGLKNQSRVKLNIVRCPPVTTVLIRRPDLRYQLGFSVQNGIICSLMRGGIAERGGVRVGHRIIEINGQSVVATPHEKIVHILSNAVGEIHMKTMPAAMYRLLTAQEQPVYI

[19] = biological target: SUMO E1/E2 (Homo sapiens, UniProt P63279+Q9UBE0+Q9UBT2); test: SAR analysis of SUMOylation using HTRF in an in-Vitro dose response assay. [Related pubchem assays (depositor defined):AID2006, AID2011, AID2018, AID2069, AID2658]; assay type: functional
Chain of SUMO E1/E2 (Q9UBE0 whole entry): as the sequence (Q9UBE0 whole entry) above
Chain of SUMO E1/E2 (Q9UBT2 whole entry): as the sequence (Q9UBT2 whole entry) above
Chain of SUMO E1/E2 (P63279 whole entry): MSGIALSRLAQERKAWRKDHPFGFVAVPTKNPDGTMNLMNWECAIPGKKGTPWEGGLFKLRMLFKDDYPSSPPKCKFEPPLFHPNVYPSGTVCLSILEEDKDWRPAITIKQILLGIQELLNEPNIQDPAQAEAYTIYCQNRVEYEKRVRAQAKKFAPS

[20] = biological target: T7, Voltage-gated N-type calcium channel alpha-1B subunit/Amyloid beta A4 precursor protein-binding family A member 1; test: disruptors of Mint-PDZ/N-type channel peptide interaction – biochemical, HTRF, set 2, SAR follow-up (AID 434980); assay type: functional
[21] = viability loss in THP-1 monocytes – THP-1 cells, cytotoxicity control for Vif-APOBEC3G degradation inhibitor project, dose response (AID 1117359); assay type: functional; details: THP-1
[22] = biological target: DNA (cytosine-5)-methyltransferase 1 (Homo sapiens, UniProt P26358); test: inhibition of DNA methylation by DNMT1 – biochemical, fluorescent molecular beacon, confirmation (AID 602386); assay type: functional
[23] = biological target: Genome polyprotein (Hepatitis C virus, UniProt Q2Q167); test: disruption of hepatitis C core self-association – biochemical, TR-FRET, dose response (AID 2159); parameters: species or system Hepacivirus hominis;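 also: blocks dimerization of HCV core protein measured by TR-FRET between tagged core106 pairs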
[24] = biological target: Bcl-2-like protein 1 (Homo sapiens, UniProt Q07817); test: blockers of BCLXL peptide binding – biochemical, fluorescence polarization, 1536-well, selectivity assay for MCL1 inhibitor project, dose response (AID 2218)
Chain of Bcl-2-like protein 1 (Q07817 whole entry): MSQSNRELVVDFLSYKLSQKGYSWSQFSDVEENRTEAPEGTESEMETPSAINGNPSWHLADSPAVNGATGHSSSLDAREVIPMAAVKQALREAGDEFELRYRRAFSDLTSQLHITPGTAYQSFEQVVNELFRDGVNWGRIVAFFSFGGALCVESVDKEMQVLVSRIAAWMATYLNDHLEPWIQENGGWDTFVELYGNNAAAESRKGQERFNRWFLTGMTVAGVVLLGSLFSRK

[25] = biological target: T8, Caspase-6 (Homo sapiens, UniProt P55212); test: inhibition of CASP6 peptide cleavage – biochemical, VEID-R110 fluorescence, cherry-pick, dose response (AID 720632)
T8 sequence (P55212 whole entry): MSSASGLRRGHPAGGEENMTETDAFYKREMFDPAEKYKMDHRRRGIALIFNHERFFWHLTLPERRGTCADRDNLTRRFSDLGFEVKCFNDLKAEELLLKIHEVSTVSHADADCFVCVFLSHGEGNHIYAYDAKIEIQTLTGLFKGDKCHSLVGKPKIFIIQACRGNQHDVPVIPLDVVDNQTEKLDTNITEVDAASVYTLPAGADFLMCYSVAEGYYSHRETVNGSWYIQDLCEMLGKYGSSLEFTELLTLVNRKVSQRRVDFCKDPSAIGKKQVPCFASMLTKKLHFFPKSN

[26] = biological target: T4, Induced myeloid leukemia cell differentiation protein Mcl-1; test: blockers of MCL1 binding to BIM peptide – biochemical, fluorescence polarization, BIM-BH3 peptide, 1536-well, dose response (AID 2217)
[27] = biological target: Genome polyprotein (dengue virus type 2, UniProt P29990); test: flavivirus cap methylation enzyme inhibition – biochemical, confirmation dose response, primary screen (AID 588689); assay type: functional
[28] = biological target: T6, Bcl-2-like protein 10; test: Concentration-response of Bcl-B inhibitors by biochemical FP with TR3 (AID 1243); assay type: functional
[29] = viability of uninfected HEp-2 cells – cell-based, HTS, cytotoxicity control for RSV inhibitor project, dose response (AID 2410); assay type: functional; details: human respiratory syncytial virus
[30] = cells
[31] = biological target: Mucolipin-3 (Homo sapiens, UniProt Q8TDD5); test: Dose response cell-based high-throughput screening assay for agonists of the transient receptor potential channel ML3 (TRPML3). [Related pubchem assays: 1526, 1424, 1448 ]; assay type: functional
[32] = biological target: Ion channel NompC (Danio rerio, UniProt Q7T1G6); test: Fluorescence counterscreen assay for TRPML3 agonists: dose response cell-based high-throughput screening assay to identify agonists of the transient receptor potential channel N1 (TRPN1). [Related pubchem assays: 1526, 1424, 1448 ]; assay type: functional

N#Cc1cc(NC(=O)c2ccc(Cl)cc2)ccc1Sc1ccccc1
EC50 [1]: 98.8 µM (active) | EC50 [2]: 3.25 µM (active)

CC(C)CC(Nc1ncnc2scc(-c3ccccc3)c12)C(=O)O (centres undefined)
EC50 [3]: > 120 µM (not active)

CCn1c(C)cc(/C=C2/SC(=S)N(CC(=O)O)C2=O)c1C
IC50 [4]: 28.6 µM (active) | EC50 [5]: > 100 µM (active) | IC50 [6]: > 100 µM (inactive) | IC50 [7]: 75.5 µM (active) | IC50 [8]: 32.9 µM (active) | AC50 [9]: 0.776 µM (active)

COc1ccccc1C(=O)Nc1ccc(-c2nnn(CC(=O)NCc3ccco3)n2)cc1
IC50 [10]: > 0.608 µM (active) | IC50 [11]: 11.8 µM (active) | IC50 [12]: > 111 µM (not active) | IC50 [13]: 27.2 µM (active)

COc1ccccc1CNC(=O)COC(=O)c1cc(-c2ccco2)nc2ccccc12
IC50 [14]: 2.04 µM (active) | IC50 [15]: > 100 µM (active) | IC50 [16]: 10.7 µM (active) | IC50 [17]: 5.79 µM (active) | IC50 [18]: 22.7 µM (active) | IC50 [19]: 5.8 µM (active) | IC50 [20]: 7.83 µM (active) | CC50 [21]: > 40 µM (active) | IC50 [11]: 10.6 µM (active) | IC50 [13]: 5.42 µM (active) | IC50 [22]: 7.11 µM (active) | IC50 [23]: > 49.8 µM (not active)

O=C(O)CN1C(=O)/C(=C\c2cc([N+](=O)[O-])ccc2OCc2ccccc2Cl)SC1=S
IC50 [24]: > 109 µM (not active) | AC50 [25]: 12.9 µM (active) | IC50 [26]: > 109 µM (not active) | IC50 [27]: 31.1 µM (active)

O=C(O)C1C2CC=CC2c2cc(Oc3ccccc3)cc3c2N1CC1CC=CC31 (centres undefined)
EC50 [28]: 4.13 µM (active)

CCn1nc(C)c(CN2CCCC(CO)(Cc3ccccc3)C2)c1C (centres undefined)
CC50 [29]: > 50 µM (active) | IC50 [30]: 42.9 µM (active)

S=C(NC1CCCCC1)N1CCOCCOCCN(C(=S)NC2CCCCC2)CCOCC1
EC50 [31]: 20.4 µM (not active) | EC50 [32]: > 29.9 µM (not active)

Reference: ChEMBL document CHEMBL1201862, “PubChem BioAssay data set” (2004)
